# Measured values as given in article PMC6946680, “Modulation of brain cation-Cl^− cotransport via the SPAK kinase inhibitor ZT-1a” (Nature Communications, 2020).
# Several values for one entry are separate records, joined by “and”; a condition that tells them apart may be missing. Equal entries are not always repeated. Entries after “also recorded” stand apart in the source; their conditions may differ.
# Target: T1, GST–[T233E]SPAK kinase (Homo sapiens, UniProt Q9UEW8, T231E)
# T1 construct: made in house; host or cells: E. coli
# Assay: SPAK kinase assay with CATCHtide and IC50 determination
# Type: biochemical
# Conditions: for ZT-1a vs SPAK+MO25, kinase activity / ZT-1a vs SPAK, kinase activity: Fig S7b; for ZT-1a vs SPAK, kinase activity: SPAK alone
# Text: II. Experimental procedures
# 1. Reagents and General methods
# Tissue culture reagents were from Life Technologies. P81 phosphocellulose paper was from Whatman […]
# and [γ-32P]-ATP was from Perkin Elmer. […] Protein G […]
# sepharose was from Amersham. DNA constructs used for transfection were purified from Escherichia coli DH5α using Qiagen or Invitrogen plasmid Maxi kits according to the manufacturer's protocol. All DNA constructs were verified by DNA sequencing.
# 2. Plasmids, protein expression and purification
# DNA clones were from the Division of Signal Transduction Therapy (University of Dundee). The SPAK proteins were expressed in E. Coli and purified as described previously 1.
# 3. SPAK kinase assays and IC50 determination
# SPAK kinase assays employed CATCHtide (cation chloride co-transporter peptide substrate). Peptide kinase assays, performed in triplicate, were set up in a total volume of 50 μl containing 0.5 μg GST– […]
# cpm/pmol) and the indicated concentrations of inhibitor dissolved in DMSO. After incubation for 30 min at 30°C, reactions were terminated by spotting 40 μl of the reaction mix onto P81 phosphocellulose paper and immersion in 50 mM phosphoric acid. The papers were washed extensively and incorporation of [γ-32P]ATP into CATCHtide was quantified by Cerenkov counting.
# IC50 values were calculated with GraphPad Prism using non-linear regression analysis.
# 4. Fluorescence polarization […]
# concentrations between 0.00001 to 1 mM. Data points are the means of three determinations, with error […]
# A Supplemental Fig. 7 Effects of increasing concentrations of ZT-1a on SPAK activity in the absence […]
# the absence or presence of five-fold molar excess of wild-type MO25α. b Kinetic data determined for B ZT-1a in the absence or presence of five-fold molar excess of wild-type MO25α. Data are means of […]
# presence of wild-type MO25α.
smiles,measurement,setting,value
"Cc1cc(C(C#N)c2ccc(Cl)cc2)c(Cl)cc1NC(=O)c1cc(Cl)ccc1O (stereo not shown) [ZT-1a, 5-chloro-N-(5-chloro-4-((4-chlorophenyl)(cyano)methyl)-2-methylphenyl)-2-hydroxybenzamide]",SPAK kinase activity signal (Fig S3 source data),"ATP 0.1 mM, inhibitor 0.3 uM",796 and 786 and 754
same,SPAK kinase activity signal (Fig S3 source data),"ATP 0.1 mM, inhibitor 1 uM",802 and 788 and 766
same,SPAK kinase activity signal (Fig S3 source data),"ATP 0.1 mM, inhibitor 3 uM",706 and 686 and 718
same,SPAK kinase activity signal (Fig S3 source data),"ATP 0.1 mM, inhibitor 10 uM",561 and 556 and 583
same,SPAK kinase activity signal (Fig S3 source data),"ATP 0.1 mM, inhibitor 100 uM",226 and 309 and 284
same,SPAK kinase activity signal (Fig S3 source data),"ATP 0.1 mM, inhibitor 1000 uM",187 and 106 and 158
same,SPAK kinase activity signal (Fig S3 source data),"ATP 1 mM, inhibitor 1e-5 uM",880 and 891 and 864
same,SPAK kinase activity signal (Fig S3 source data),"ATP 1 mM, inhibitor 0.0001 uM",892 and 902 and 916
same,SPAK kinase activity signal (Fig S3 source data),"ATP 1 mM, inhibitor 0.001 uM",869 and 902 and 885
same,SPAK kinase activity signal (Fig S3 source data),"ATP 1 mM, inhibitor 0.03 uM",812 and 786 and 753
same,SPAK kinase activity signal (Fig S3 source data),"ATP 1 mM, inhibitor 0.1 uM",862 and 807 and 759
same,SPAK kinase activity signal (Fig S3 source data),"ATP 1 mM, inhibitor 0.3 uM",768 and 789 and 736
same,SPAK kinase activity signal (Fig S3 source data),"ATP 1 mM, inhibitor 1 uM",662 and 719 and 681
same,SPAK kinase activity signal (Fig S3 source data),"ATP 1 mM, inhibitor 3 uM",641 and 604 and 563
same,SPAK kinase activity signal (Fig S3 source data),"ATP 1 mM, inhibitor 10 uM",554 and 604 and 587
same,SPAK kinase activity signal (Fig S3 source data),"ATP 1 mM, inhibitor 100 uM",453 and 345 and 405
same,SPAK kinase activity signal (Fig S3 source data),"ATP 1 mM, inhibitor 1000 uM",222 and 164 and 186
same,change of SPAK IC50 values with increasing ATP concentration,ATP between 0.01 and 1 mM,unchanged; also recorded: unaffected by changing [ATP]
same,"ZT-1a vs SPAK+MO25, kinase activity",ZT-1a 1e-5 uM,401897 C.P.M and 396529 C.P.M and 387112 C.P.M
same,"ZT-1a vs SPAK+MO25, kinase activity",ZT-1a 0.0001 uM,393641 C.P.M and 402385 C.P.M and 384718 C.P.M
same,"ZT-1a vs SPAK+MO25, kinase activity",ZT-1a 0.001 uM,392612 C.P.M and 367664 C.P.M and 337143 C.P.M
same,"ZT-1a vs SPAK+MO25, kinase activity",ZT-1a 0.003 uM,363431 C.P.M and 388438 C.P.M and 371694 C.P.M
same,"ZT-1a vs SPAK+MO25, kinase activity",ZT-1a 0.01 uM,359080 C.P.M and 382836 C.P.M and 362174 C.P.M
same,"ZT-1a vs SPAK+MO25, kinase activity",ZT-1a 0.03 uM,408327 C.P.M and 384102 C.P.M and 373519 C.P.M
same,"ZT-1a vs SPAK+MO25, kinase activity",ZT-1a 0.1 uM,381538 C.P.M and 398205 C.P.M and 371203 C.P.M
same,"ZT-1a vs SPAK+MO25, kinase activity",ZT-1a 0.3 uM,371591 C.P.M and 394205 C.P.M and 361553 C.P.M
same,"ZT-1a vs SPAK+MO25, kinase activity",ZT-1a 1 uM,365869 C.P.M and 359432 C.P.M and 371032 C.P.M
same,"ZT-1a vs SPAK+MO25, kinase activity",ZT-1a 3 uM,354403 C.P.M and 355755 C.P.M and 331937 C.P.M
same,"ZT-1a vs SPAK+MO25, kinase activity",ZT-1a 10 uM,325521 C.P.M and 299490 C.P.M and 282196 C.P.M
same,"ZT-1a vs SPAK+MO25, kinase activity",ZT-1a 100 uM,119789 C.P.M and 97606 C.P.M and 83035 C.P.M
same,"ZT-1a vs SPAK+MO25, kinase activity",ZT-1a 1000 uM,31455 C.P.M and 51772 C.P.M and 49172 C.P.M
same,"ZT-1a vs SPAK, kinase activity",ZT-1a 1e-5 uM,48785 C.P.M and 47183 C.P.M and 49610 C.P.M
same,"ZT-1a vs SPAK, kinase activity",ZT-1a 0.0001 uM,46475 C.P.M and 45108 C.P.M and 47685 C.P.M
same,"ZT-1a vs SPAK, kinase activity",ZT-1a 0.001 uM,47080 C.P.M and 46113 C.P.M and 46420 C.P.M
same,"ZT-1a vs SPAK, kinase activity",ZT-1a 0.003 uM,44660 C.P.M and 45821 C.P.M and 45595 C.P.M
same,"ZT-1a vs SPAK, kinase activity",ZT-1a 0.01 uM,45890 C.P.M and 44094 C.P.M and 44440 C.P.M
same,"ZT-1a vs SPAK, kinase activity",ZT-1a 0.03 uM,44825 C.P.M and 43187 C.P.M and 44890 C.P.M
same,"ZT-1a vs SPAK, kinase activity",ZT-1a 0.1 uM,44275 C.P.M and 42127 C.P.M and 44780 C.P.M
same,"ZT-1a vs SPAK, kinase activity",ZT-1a 0.3 uM,44230 C.P.M and 41993 C.P.M and 43780 C.P.M
same,"ZT-1a vs SPAK, kinase activity",ZT-1a 1 uM,43840 C.P.M and 42097 C.P.M and 44510 C.P.M
same,"ZT-1a vs SPAK, kinase activity",ZT-1a 3 uM,41230 C.P.M and 39714 C.P.M and 40580 C.P.M
same,"ZT-1a vs SPAK, kinase activity",ZT-1a 10 uM,29580 C.P.M and 31008 C.P.M and 33855 C.P.M
same,"ZT-1a vs SPAK, kinase activity",ZT-1a 100 uM,14995 C.P.M and 17307 C.P.M and 16430 C.P.M
same,"ZT-1a vs SPAK, kinase activity",ZT-1a 1000 uM,5830 C.P.M and 7520 C.P.M and 9285 C.P.M
same,IC50,absence of wild-type MO25α,40.5 µM
same,IC50,presence of five-fold molar excess of wild-type MO25α,41.3 µM
